Assay results as given in patent publication US12233161B1, “Lipids and lipid nanoparticle formulations” (LONGUIDE BIOPHARMA CORPORATION, priority 2024, dated 2025).

What was measured:
[1] = Potential characterization of nucleic acid lipid nanoparticle preparations; type: physicochemical
How it was run: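 Nanoparticles (about 0.04 mg/mL mRNA) were diluted in ultrapure water for Malvern ZEN3700 measurement: 20 μL into 780 μL for potential alone, or 27.5 μL into 200 μL for DLS particle size followed by addition of 600 μL water for potential.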

[2] = Particle size and PDI of nucleic acid lipid nanoparticle preparations by dynamic light scattering; type: physicochemical
How it was run: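 Nanoparticle suspension (about 0.04 mg/mL mRNA) diluted in ultrapure water, mixed by gentle pipetting; particle size measured by dynamic light scattering. Zeta potential measured on the recovered sample after further dilution in ultrapure water.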

mice = assay: In vivo delivery of FLuc-mRNA lipid nanoparticles in mice, in vivo imaging (IVIS); settings: for in vivo delivery efficiency as compared to the benchmark compound SM102 / tissue-targeting specificity (lung vs spleen depending on molar percentage of compound): certain formulations, Table 2
How it was run: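 Mice (n=3) received about 75 μL FLuc-mRNA LNP per mouse intramuscularly (rectus femoris), intravenously (tail vein), intraperitoneally or subcutaneously (back). After injection, D-luciferin (200 μL, 15 mg/mL) was given i.p. 10-15 min before IVIS imaging.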

[3] = DMG-PEG2000:DSPC:Chol:compound 1.00:10.00:33.00:56.00, N/P 48
[4] = DMG-PEG2000:DSPC:Chol:Lipid 0.50:4.00:47.00:48.50, N/P 36, mRNA LNP
[5] = DMG-PEG2000:DSPC:Chol:Lipid 1.00:4.00:25.00:70.00, N/P 36, mRNA LNP
[6] = DMG-PEG2000:DSPC:Chol:Lipid 1.00:16.00:48.00:35.00, N/P 18, mRNA LNP
[7] = DMG-PEG2000:DSPC:Chol:Lipid 1.40:11.15:38.95:48.50, N/P 18, mRNA LNP
[8] = DMG-PEG2000:DSPC:Chol:Lipid 0.50:4.00:47.00:48.50, N/P 36, IV, liver
[9] = DMG-PEG2000:DSPC:Chol:Lipid 0.50:4.00:47.00:48.50, N/P 36, IV, lung
[10] = DMG-PEG2000:DSPC:Chol:Lipid 0.50:4.00:47.00:48.50, N/P 36, IV, spleen
[11] = DMG-PEG2000:DSPC:Chol:Lipid 1.00:4.00:25.00:70.00, N/P 36, IV, liver
[12] = DMG-PEG2000:DSPC:Chol:Lipid 1.00:4.00:25.00:70.00, N/P 36, IV, lung
[13] = DMG-PEG2000:DSPC:Chol:Lipid 1.00:4.00:25.00:70.00, N/P 36, IV, spleen
[14] = DMG-PEG2000:DSPC:Chol:Lipid 1.00:16.00:48.00:35.00, N/P 18, IV, liver
[15] = DMG-PEG2000:DSPC:Chol:Lipid 1.00:16.00:48.00:35.00, N/P 18, IV, lung
[16] = DMG-PEG2000:DSPC:Chol:Lipid 1.00:16.00:48.00:35.00, N/P 18, IV, spleen
[17] = DMG-PEG2000:DSPC:Chol:compound 1.40:11.15:38.95:48.50, N/P 30
[18] = mRNA LNP, 1.00:4.00:30.00:65.00, N/P 30
[19] = DMG-PEG2000:DSPC:Chol:Lipid 1.00:4.00:60.00:35.00, N/P 18, mRNA LNP
[20] = DMG-PEG2000:DSPC:Chol:Lipid 1.71:12.98:45.31:40.00, N/P 30, mRNA LNP
[21] = DMG-PEG2000:DSPC:Chol:Lipid 2.50:16.00:16.50:65.00, N/P 18, mRNA LNP
[22] = DMG-PEG2000:DSPC:Chol:Lipid 1.00:4.00:60.00:35.00, N/P 18, IV, liver
[23] = DMG-PEG2000:DSPC:Chol:Lipid 1.00:4.00:60.00:35.00, N/P 18, IV, lung
[24] = DMG-PEG2000:DSPC:Chol:Lipid 1.00:4.00:60.00:35.00, N/P 18, IV, spleen
[25] = DMG-PEG2000:DSPC:Chol:Lipid 2.50:16.00:16.50:65.00, N/P 18, IV, liver
[26] = DMG-PEG2000:DSPC:Chol:Lipid 2.50:16.00:16.50:65.00, N/P 18, IV, lung
[27] = DMG-PEG2000:DSPC:Chol:Lipid 2.50:16.00:16.50:65.00, N/P 18, IV, spleen
[28] = mRNA LNP, 1.00:4.00:30.00:65.00, N/P 30, IV, liver
[29] = mRNA LNP, 1.00:4.00:30.00:65.00, N/P 30, IV, lung
[30] = mRNA LNP, 1.00:4.00:30.00:65.00, N/P 30, IV, spleen

CCCCCCCCCCCCNC(=O)C(O)CN(CCCN(CCCN(CC(O)C(=O)NCCCCCCCCCCCC)CC(O)C(=O)NCCCCCCCCCCCC)CC(O)CO)CC(O)C(=O)NCCCCCCCCCCCC (centres unmarked) [Compound L0273]
Zeta potential (mV) [1, 3]: 13.60 mV | PDI [2, 4]: 0.11 ± 0.01 | Particle size [2, 4]: 113.50 ± 0.20 nm | PDI [2, 5]: 0.18 ± 0.01 | Particle size [2, 5]: 167.67 ± 2.20 nm | PDI [2, 6]: 0.15 ± 0.02 | Particle size [2, 6]: 119.23 ± 0.68 nm | PDI [2, 7]: 0.13 ± 0.02 | Particle size [2, 7]: 91.45 ± 0.74 nm | PDI [2, 3]: 0.13 | Particle size (nm) [2, 3]: 125.97 nm | IVIS (mice; DMG-PEG2000:DSPC:Chol:Lipid 0.50:4.00:47.00:48.50, N/P 36, IV, body): 5.29 × 10^7 | % of organ targeting (mice; [8]): 1.50% | IVIS (mice; [8]): 2.55 × 10^6 | % of organ targeting (mice; [9]): 95.51% | IVIS (mice; [9]): 1.62 × 10^8 | % of organ targeting (mice; [10]): 2.99% | IVIS (mice; [10]): 5.07 × 10^6 | IVIS (mice; DMG-PEG2000:DSPC:Chol:Lipid 1.00:4.00:25.00:70.00, N/P 36, IV, body): 1.65 × 10^8 | % of organ targeting (mice; [11]): 1.40% | IVIS (mice; [11]): 6.91 × 10^6 | % of organ targeting (mice; [12]): 97.42% | IVIS (mice; [12]): 4.82 × 10^8 | % of organ targeting (mice; [13]): 1.19% | IVIS (mice; [13]): 5.88 × 10^6 | IVIS (mice; DMG-PEG2000:DSPC:Chol:Lipid 1.00:16.00:48.00:35.00, N/P 18, IV, body): 3.19 × 10^7 | % of organ targeting (mice; [14]): 14.38% | IVIS (mice; [14]): 3.44 × 10^6 | % of organ targeting (mice; [15]): 9.95% | IVIS (mice; [15]): 2.38 × 10^6 | % of organ targeting (mice; [16]): 75.67% | IVIS (mice; [16]): 1.81 × 10^7 | IVIS (mice; DMG-PEG2000:DSPC:Chol:Lipid 1.40:11.15:38.95:48.50, N/P 18, IM, whole body scan): 2.54 × 10^6 | IVIS (mice; IV, body, DMG-PEG2000:DSPC:Chol:compound 1.00:10.00:33.00:56.00, N/P 48, Fluc-mRNA): 4.36E+08 | % of organ targeting (mice; IV, liver, DMG-PEG2000:DSPC:Chol:compound 1.00:10.00:33.00:56.00, N/P 48): 0.73% | IVIS (mice; IV, liver, DMG-PEG2000:DSPC:Chol:compound 1.00:10.00:33.00:56.00, N/P 48, Fluc-mRNA): 5.72E+06 | % of organ targeting (mice; IV, lung, DMG-PEG2000:DSPC:Chol:compound 1.00:10.00:33.00:56.00, N/P 48): 98.17% | IVIS (mice; IV, lung, DMG-PEG2000:DSPC:Chol:compound 1.00:10.00:33.00:56.00, N/P 48, Fluc-mRNA): 7.69E+08 | % of organ targeting (mice; IV, spleen, DMG-PEG2000:DSPC:Chol:compound 1.00:10.00:33.00:56.00, N/P 48): 1.09% | IVIS (mice; IV, spleen, DMG-PEG2000:DSPC:Chol:compound 1.00:10.00:33.00:56.00, N/P 48, Fluc-mRNA): 8.58E+06 | in vivo delivery efficiency as compared to the benchmark compound SM102 (mice): superior in vivo delivery efficiency | tissue-targeting specificity (lung vs spleen depending on molar percentage of compound) (mice): strong tissue-targeting specificity

CCCCCCCCCCCCCCOC(=O)C(O)CN(CCN(C)CCN(CC(O)C(=O)OCCCCCCCCCCCCCC)CC(O)C(=O)OCCCCCCCCCCCCCC)CC(O)C(=O)OCCCCCCCCCCCCCC (centres unmarked) [Compound L0338]
Zeta potential (mV) [1, 17]: 19.13 mV | PDI [2, 17]: 0.22 | Particle size (nm) [2, 17]: 96.63 nm | IVIS (mice; IM, DMG-PEG2000:DSPC:Chol:compound 1.40:11.15:38.95:48.50, N/P 30, Fluc-mRNA): 3.98E+05 | IVIS (mice; IV, body, DMG-PEG2000:DSPC:Chol:compound 1.40:11.15:38.95:48.50, N/P 30, Fluc-mRNA): 8.55E+06 | % of organ targeting (mice; IV, liver, DMG-PEG2000:DSPC:Chol:compound 1.40:11.15:38.95:48.50, N/P 30): 11.14% | IVIS (mice; IV, liver, DMG-PEG2000:DSPC:Chol:compound 1.40:11.15:38.95:48.50, N/P 30, Fluc-mRNA): 8.81E+05 | % of organ targeting (mice; IV, lung, DMG-PEG2000:DSPC:Chol:compound 1.40:11.15:38.95:48.50, N/P 30): 3.68% | IVIS (mice; IV, lung, DMG-PEG2000:DSPC:Chol:compound 1.40:11.15:38.95:48.50, N/P 30, Fluc-mRNA): 2.91E+05 | % of organ targeting (mice; IV, spleen, DMG-PEG2000:DSPC:Chol:compound 1.40:11.15:38.95:48.50, N/P 30): 85.18% | IVIS (mice; IV, spleen, DMG-PEG2000:DSPC:Chol:compound 1.40:11.15:38.95:48.50, N/P 30, Fluc-mRNA): 6.73E+06

CCCCCCCCCCCCNC(=O)C(O)CN(CCN(C)CCN(CC(O)C(=O)NCCCCCCCCCCCC)CC(O)C(=O)NCCCCCCCCCCCC)CC(O)C(=O)NCCCCCCCCCCCC (centres unmarked) [Compound L0264]
Zeta potential (mV) [1, 18]: 12.33 mV | PDI [2, 19]: 0.08 ± 0.02 | Particle size [2, 19]: 78.48 ± 0.63 nm | PDI [2, 20]: 0.18 ± 0.00 | Particle size [2, 20]: 85.86 ± 1.26 nm | PDI [2, 21]: 0.15 ± 0.01 | Particle size [2, 21]: 92.82 ± 0.65 nm | PDI [2, 18]: 0.14 | Particle size (nm) [2, 18]: 90.94 nm | IVIS (mice; DMG-PEG2000:DSPC:Chol:Lipid 1.00:4.00:60.00:35.00, N/P 18, IV, body): 9.71 × 10^7 | % of organ targeting (mice; [22]): 13.54% | IVIS (mice; [22]): 4.70 × 10^6 | % of organ targeting (mice; [23]): 34.29% | IVIS (mice; [23]): 1.19 × 10^7 | % of organ targeting (mice; [24]): 52.16% | IVIS (mice; [24]): 1.81 × 10^7 | IVIS (mice; DMG-PEG2000:DSPC:Chol:Lipid 1.71:12.98:45.31:40.00, N/P 30, IM, whole body scan): 3.34 × 10^5 | IVIS (mice; DMG-PEG2000:DSPC:Chol:Lipid 2.50:16.00:16.50:65.00, N/P 18, IV, body): 4.76 × 10^7 | % of organ targeting (mice; [25]): 0.90% | IVIS (mice; [25]): 9.86 × 10^5 | % of organ targeting (mice; [26]): 95.82% | IVIS (mice; [26]): 1.05 × 10^8 | % of organ targeting (mice; [27]): 3.28% | IVIS (mice; [27]): 3.59 × 10^6 | in vivo delivery efficiency as compared to the benchmark compound SM102 (mice): superior in vivo delivery efficiency | tissue-targeting specificity (lung vs spleen depending on molar percentage of compound) (mice): strong tissue-targeting specificity | % of organ targeting (mice; [28]): 0.40% | IVIS (mice; [28]): 2.69E+06 | % of organ targeting (mice; [29]): 98.90% | IVIS (mice; [29]): 6.68E+08 | % of organ targeting (mice; [30]): 0.71% | IVIS (mice; [30]): 4.76E+06 | IVIS (mice; mRNA LNP, DMG-PEG2000:DSPC:Chol:lipid 1.00:4.00:30.00:65.00, N/P 30, IV, body): 2.87E+08
